# According to US9907859B2 (priority 2010, dated 2018):
# Like-named read-outs stand apart in the source and are kept apart here.
# Experiments:
# in vivo [1] = conditions: New Zealand White, rabbit, iv; for clearance: CL
# [2] = mouse, in vivo; for AUC0-24: po, 300 mg/kg
# in vivo [3] = conditions: New Zealand White, rabbit, po, 100 mg/kg
# VV = conditions: mouse, in vivo; cited from earlier work
# [4] = both, cynomolgus monkey, in vivo, po
# [5] = in vivo
# ECTV = conditions: in vivo; cited from earlier work
# in vivo [6] = conditions: both, cynomolgus monkey, iv; for AUC(0-inf): AUCINF—obs; for clearance: CL
compound,measurement,setting,value
"O=C(NN1C(=O)C2C3C=CC(C4CC34)C2C1=O)c1ccc(C(F)(F)F)cc1 (stereo not shown) [ST-246, 4-trifluoromethyl-N-(3,3a,4,4a,5,5a,6,6a-octahydro-1,3-dioxo-4,6-ethenocycloprop[f]isoindol-2(1H)-yl)-benzamide]",AUC(0-t),"in vivo [1]; 1 mg/kg, AUC0-24 hr",1430 ± 400 ng·h/mL
same,clearance,in vivo [1]; 1 mg/kg,27.7 mL/min/kg
same,Cmax,"in vivo [1]; 1 mg/kg, Cmax",1670 ± 2270 ng/mL
same,half-life,"in vivo [1]; 1 mg/kg, T1/2",0.9 ± 0.2 h
same,AUC(0-t),"in vivo [1]; both, 3 mg/kg, AUC0-24",2380 ng·h/mL
same,AUC(0-t),"in vivo [1]; both, 3 mg/kg, AUC0-24 hr",2380 ± 930 ng·h/mL
same,clearance,"in vivo [1]; both, 3 mg/kg",22.3 mL/min/kg
same,Cmax,"in vivo [1]; both, 3 mg/kg, Cmax",3030 ± 370 ng/mL
same,Cmax,"in vivo [1]; both, 3 mg/kg, mean Cmax",5790 ng/mL
same,AUC(0-t),"in vivo [1]; both, 30 mg/kg, AUC0-24 hr",13300 ± 700 ng·h/mL
same,clearance,"in vivo [1]; both, 30 mg/kg",37.1 mL/min/kg
same,Cmax,"in vivo [1]; both, 30 mg/kg, Cmax",38500 ± 3700 ng/mL
same,half-life,"in vivo [1]; both, 30 mg/kg, T1/2",12.2 ± 5.8 h
same,AUC(0-t),"in vivo [1]; both, 60 mg/kg, AUC0-24 hr",61800 ± 8700 ng·h/mL
same,clearance,"in vivo [1]; both, 60 mg/kg",16.4 mL/min/kg
same,Cmax,"in vivo [1]; both, 60 mg/kg, Cmax",94100 ± 11100 ng/mL
same,half-life,"in vivo [1]; both, 60 mg/kg, T1/2",5.2 ± 0.8 h
same,Cmax,"in vivo [1]; both, 60 mg/kg, mean Cmax",94100 ng/mL
same,half-life,"in vivo [1]; both, elimination half-lives",1 to 12.2 h
same,AUC(0-t),"in vivo [1]; female, 1 mg/kg, AUC0-24",1150 ng·h/mL
same,Cmax,"in vivo [1]; female, 1 mg/kg, Cmax",679 ng/mL
same,half-life,"in vivo [1]; female, 1 mg/kg, T1/2",0.69 h
same,AUC(0-t),"in vivo [1]; female, 3 mg/kg, AUC0-24",3210 ng·h/mL
same,Cmax,"in vivo [1]; female, 3 mg/kg, Cmax",3340 ng/mL
same,AUC(0-t),"in vivo [1]; female, 30 mg/kg, AUC0-24",14900 ng·h/mL
same,Cmax,"in vivo [1]; female, 30 mg/kg, Cmax",37000 ng/mL
same,half-life,"in vivo [1]; female, 30 mg/kg, T1/2",16.3 h
same,AUC(0-t),"in vivo [1]; female, 60 mg/kg, AUC0-24",60100 ng·h/mL
same,Cmax,"in vivo [1]; female, 60 mg/kg, Cmax",88200 ng/mL
same,half-life,"in vivo [1]; female, 60 mg/kg, T1/2",4.6 h
same,AUC(0-t),"in vivo [1]; male, 1 mg/kg, AUC0-24",1710 ng·h/mL
same,Cmax,"in vivo [1]; male, 1 mg/kg, Cmax",769 ng/mL
same,half-life,"in vivo [1]; male, 1 mg/kg, T1/2",1.1 h
same,AUC(0-t),"in vivo [1]; male, 3 mg/kg, AUC0-24",1870 ng·h/mL
same,half-life,"in vivo [1]; male, 3 mg/kg, T1/2",3.2 h
same,AUC(0-t),"in vivo [1]; male, 30 mg/kg, AUC0-24",16200 ng·h/mL
same,Cmax,"in vivo [1]; male, 30 mg/kg, Cmax",40000 ng/mL
same,half-life,"in vivo [1]; male, 30 mg/kg, T1/2",8.1 h
same,AUC(0-t),"in vivo [1]; male, 60 mg/kg, AUC0-24",72300 ng·h/mL
same,Cmax,"in vivo [1]; male, 60 mg/kg, Cmax",99800 ng/mL
same,half-life,"in vivo [1]; male, 60 mg/kg, T1/2",5.7 h
same,increase of apparent clearance after oral dosing,"[2]; female, BALB/c",approximately 10 fold
same,AUC0-24,[2]; female,688685 ng·h/mL
same,AUC0-24,[2]; male,669961 ng·h/mL
same,AUC(0-t),in vivo [3]; both,19800 ng·h/mL
same,CL/F,in vivo [3]; both,120 mL/min/kg
same,Cmax,in vivo [3]; both,2860 ng/mL
same,half-life,in vivo [3]; both,3.7 h
same,AUC(0-t),in vivo [3]; female,8180 ng·h/mL
same,Cmax,in vivo [3]; female,1230 ng/mL
same,half-life,in vivo [3]; female,1.3 h
same,AUC(0-t),in vivo [3]; male,26400 ng·h/mL
same,Cmax,in vivo [3]; male,4480 ng/mL
same,half-life,in vivo [3]; male,6 h
same,tail lesions,VV,significantly reduced
same,increase of exposure (AUCinf-obs),[4],84 fold
same,increase of maximum plasma concentration (Cmax),[4],37 fold
same,HL_Lambda_z,[4]; 10 mg/kg,7.0 ± 0.9 h
same,HL_Lambda_z,[4]; 20 mg/kg,7.2 ± 2.3 h
same,time to recovery,"[5]; female, CD-1, mouse, iv, 75 mg/kg",2 to 3 h
same,tolerability,[5]; mouse,well-tolerated
same,toxicity after bolus IV injection,"[5]; mouse, iv, 34 mg/kg",some dose-related toxicity and mortality
same,clinical signs,"[5]; mouse, iv, 75 mg/kg",unsteady gait
same,clinical signs,"[5]; mouse, iv, 100 mg/kg",clinical signs of labored breathing and lethargy
same,preventing or reducing mortality,ECTV,highly effective in preventing or reducing mortality
same,toxicity in animal model,ECTV,nontoxic
same,AUC(0-t),in vivo [6]; 1 mg/kg,1880 ± 455 ng·h/mL
same,AUC(0-inf),in vivo [6]; 1 mg/kg,1940 ± 459 ng·h/mL
same,clearance,in vivo [6]; 1 mg/kg,8.95 mL/min/kg
same,Cmax,in vivo [6]; 1 mg/kg,384 ± 112 ng/mL
same,half-life,"in vivo [6]; 1 mg/kg, T1/2",6.6 ± 6 h
same,Tmax,"in vivo [6]; 1 mg/kg, Tmax",4 h
same,AUC(0-t),in vivo [6]; 3 mg/kg,5650 ± 784 ng·h/mL
same,AUC(0-inf),in vivo [6]; 3 mg/kg,5830 ± 870 ng·h/mL
same,clearance,in vivo [6]; 3 mg/kg,8.72 mL/min/kg
same,Cmax,in vivo [6]; 3 mg/kg,1050 ± 185 ng/mL
